Source: paper PMC4997885, “In Vitro and In Vivo Assessments of Cardiovascular Effects with Omadacycline” (Antimicrobial Agents and Chemotherapy, 2016)
pEC50, pIC50: −log10 of the molar value. In brackets after ≈: the same amount, converted by molar mass.

Tests used:
M4 = molecular target: T1, M4 (Homo sapiens, UniProt P08173); test: radioligand binding inhibition; conditions: […] separate tests; read-out: EC50 or IC50
T1 construct: gene CHRM4; human recombinant receptor
T1 sequence (P08173 1-479): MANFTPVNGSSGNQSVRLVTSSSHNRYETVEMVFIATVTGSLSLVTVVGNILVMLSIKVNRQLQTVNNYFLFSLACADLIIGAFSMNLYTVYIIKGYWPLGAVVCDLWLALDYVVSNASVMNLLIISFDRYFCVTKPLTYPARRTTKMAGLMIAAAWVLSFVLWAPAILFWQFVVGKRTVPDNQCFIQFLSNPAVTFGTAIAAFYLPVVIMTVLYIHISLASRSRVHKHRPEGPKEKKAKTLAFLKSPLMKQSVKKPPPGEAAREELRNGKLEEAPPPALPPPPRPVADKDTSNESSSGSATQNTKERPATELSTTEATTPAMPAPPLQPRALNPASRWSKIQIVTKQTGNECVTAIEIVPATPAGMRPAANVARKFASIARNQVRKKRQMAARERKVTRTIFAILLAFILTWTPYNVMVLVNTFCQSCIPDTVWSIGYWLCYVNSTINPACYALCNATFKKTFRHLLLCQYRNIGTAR
From the text: radioligand binding inhibition on M4

[1] = molecular target: T2, hERG (human ether-a-go-go-related gene) channel (Homo sapiens, UniProt Q12809); test: hERG tail current electrophysiology, HEK293 cells; format: cell-based; conditions: room temperature; […] tested; corrected for vehicle rundown; point-to-point fit
T2 construct: gene KCNH2; hERG cDNA stably transfected in HEK293 cells; homotetramer
T2 sequence (Q12809 whole entry): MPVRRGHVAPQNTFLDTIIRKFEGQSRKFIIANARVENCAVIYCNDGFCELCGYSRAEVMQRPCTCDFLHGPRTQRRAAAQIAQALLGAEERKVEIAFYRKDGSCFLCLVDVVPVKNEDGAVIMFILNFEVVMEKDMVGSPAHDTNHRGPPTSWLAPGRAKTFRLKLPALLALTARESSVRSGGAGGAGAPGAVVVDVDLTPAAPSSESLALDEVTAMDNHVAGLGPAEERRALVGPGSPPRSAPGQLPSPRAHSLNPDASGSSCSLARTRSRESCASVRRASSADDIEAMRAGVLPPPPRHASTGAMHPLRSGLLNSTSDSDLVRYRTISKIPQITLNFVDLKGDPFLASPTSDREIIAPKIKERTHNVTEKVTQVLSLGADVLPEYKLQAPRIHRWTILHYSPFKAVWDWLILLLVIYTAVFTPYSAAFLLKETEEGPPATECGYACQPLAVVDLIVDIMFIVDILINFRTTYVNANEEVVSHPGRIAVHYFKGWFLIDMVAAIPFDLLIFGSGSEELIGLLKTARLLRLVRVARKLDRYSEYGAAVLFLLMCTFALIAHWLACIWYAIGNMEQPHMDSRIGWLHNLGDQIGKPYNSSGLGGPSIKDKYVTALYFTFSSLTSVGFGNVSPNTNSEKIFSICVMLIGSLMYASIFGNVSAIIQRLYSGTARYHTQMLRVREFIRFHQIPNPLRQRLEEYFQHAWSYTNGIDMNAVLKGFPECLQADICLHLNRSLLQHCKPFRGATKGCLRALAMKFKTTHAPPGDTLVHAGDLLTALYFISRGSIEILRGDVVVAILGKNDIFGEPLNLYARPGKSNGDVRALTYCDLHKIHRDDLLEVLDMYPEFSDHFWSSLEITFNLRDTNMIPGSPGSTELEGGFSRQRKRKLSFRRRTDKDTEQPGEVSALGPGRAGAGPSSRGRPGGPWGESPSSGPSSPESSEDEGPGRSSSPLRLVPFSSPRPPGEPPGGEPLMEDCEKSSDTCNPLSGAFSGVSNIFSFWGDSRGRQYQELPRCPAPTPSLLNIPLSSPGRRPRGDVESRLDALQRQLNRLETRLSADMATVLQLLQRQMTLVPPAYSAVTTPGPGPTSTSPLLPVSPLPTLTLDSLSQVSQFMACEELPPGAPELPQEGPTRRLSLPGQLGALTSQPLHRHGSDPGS

M1 = molecular target: T3, M1 (Homo sapiens, UniProt P11229); test: radioligand binding inhibition; conditions: […] test; read-out: EC50 or IC50
T3 construct: gene CHRM1; human recombinant receptor
T3 sequence (P11229 1-460): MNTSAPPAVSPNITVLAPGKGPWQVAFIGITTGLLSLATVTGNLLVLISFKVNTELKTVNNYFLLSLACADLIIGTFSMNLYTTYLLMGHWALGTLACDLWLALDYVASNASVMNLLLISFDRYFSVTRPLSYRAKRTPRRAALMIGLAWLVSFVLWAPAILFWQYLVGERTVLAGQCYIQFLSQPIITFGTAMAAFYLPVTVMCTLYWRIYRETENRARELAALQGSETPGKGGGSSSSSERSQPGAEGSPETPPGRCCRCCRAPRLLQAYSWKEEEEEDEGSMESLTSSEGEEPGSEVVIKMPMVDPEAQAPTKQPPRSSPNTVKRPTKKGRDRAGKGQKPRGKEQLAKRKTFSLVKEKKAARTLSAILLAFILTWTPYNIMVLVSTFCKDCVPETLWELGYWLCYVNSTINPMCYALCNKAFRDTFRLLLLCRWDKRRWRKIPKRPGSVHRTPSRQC
From the text: radioligand binding inhibition on M1

[2] = molecular target: T4, M2 (muscarinic subtype 2 acetylcholine receptor) (Homo sapiens, UniProt P08172); test: functional M2 agonist assay; format: cell-based; conditions: agonist mode; […] separate tests; read-out: EC50 or IC50
T4 construct: gene CHRM2; human recombinant receptor
T4 sequence (P08172 1-466): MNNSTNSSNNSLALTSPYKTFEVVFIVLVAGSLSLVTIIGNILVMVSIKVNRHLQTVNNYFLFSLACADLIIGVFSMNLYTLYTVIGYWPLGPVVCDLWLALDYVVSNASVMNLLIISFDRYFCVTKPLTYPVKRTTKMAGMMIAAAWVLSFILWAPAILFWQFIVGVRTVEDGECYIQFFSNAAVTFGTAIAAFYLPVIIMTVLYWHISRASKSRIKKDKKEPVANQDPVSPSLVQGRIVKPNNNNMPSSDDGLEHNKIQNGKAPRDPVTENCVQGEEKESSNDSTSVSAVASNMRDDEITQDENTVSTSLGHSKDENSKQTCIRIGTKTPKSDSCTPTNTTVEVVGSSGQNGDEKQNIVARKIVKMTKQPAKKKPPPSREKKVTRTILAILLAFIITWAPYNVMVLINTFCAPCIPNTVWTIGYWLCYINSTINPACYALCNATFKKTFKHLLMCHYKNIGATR
From the text: functional M2 agonist assay on M2 (muscarinic subtype 2 acetylcholine receptor)

M5 = molecular target: T5, M5 (Homo sapiens, UniProt P08912); test: radioligand binding inhibition; conditions: […] separate tests; read-out: EC50 or IC50
T5 construct: gene CHRM5; human recombinant receptor
T5 sequence (P08912 1-532): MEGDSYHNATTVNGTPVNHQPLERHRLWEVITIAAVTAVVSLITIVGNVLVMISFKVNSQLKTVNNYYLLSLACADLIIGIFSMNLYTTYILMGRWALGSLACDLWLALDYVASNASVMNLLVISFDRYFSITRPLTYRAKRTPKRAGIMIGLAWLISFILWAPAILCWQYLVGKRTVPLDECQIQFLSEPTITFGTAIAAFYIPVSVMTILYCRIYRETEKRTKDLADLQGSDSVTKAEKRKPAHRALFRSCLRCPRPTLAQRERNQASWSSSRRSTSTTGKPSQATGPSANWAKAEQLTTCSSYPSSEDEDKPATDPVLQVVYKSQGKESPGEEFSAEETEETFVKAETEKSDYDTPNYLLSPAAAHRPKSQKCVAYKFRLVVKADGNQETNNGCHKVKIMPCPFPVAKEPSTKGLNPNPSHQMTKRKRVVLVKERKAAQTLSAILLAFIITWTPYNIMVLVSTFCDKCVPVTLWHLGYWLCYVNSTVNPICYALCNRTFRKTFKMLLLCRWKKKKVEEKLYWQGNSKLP
From the text: radioligand binding inhibition on M5

[3] = molecular target: T4, M2 (muscarinic subtype 2 acetylcholine receptor); test: functional M2 antagonist assay; format: cell-based; conditions: antagonist mode; range of […] separate tests ([…])
[4] = molecular target: T6, M3 (muscarinic receptor M3) (Homo sapiens, UniProt P20309); test: radioligand binding inhibition; conditions: […] test; read-out: EC50 or IC50
T6 construct: gene CHRM3; human recombinant receptor
T6 sequence (P20309 whole entry): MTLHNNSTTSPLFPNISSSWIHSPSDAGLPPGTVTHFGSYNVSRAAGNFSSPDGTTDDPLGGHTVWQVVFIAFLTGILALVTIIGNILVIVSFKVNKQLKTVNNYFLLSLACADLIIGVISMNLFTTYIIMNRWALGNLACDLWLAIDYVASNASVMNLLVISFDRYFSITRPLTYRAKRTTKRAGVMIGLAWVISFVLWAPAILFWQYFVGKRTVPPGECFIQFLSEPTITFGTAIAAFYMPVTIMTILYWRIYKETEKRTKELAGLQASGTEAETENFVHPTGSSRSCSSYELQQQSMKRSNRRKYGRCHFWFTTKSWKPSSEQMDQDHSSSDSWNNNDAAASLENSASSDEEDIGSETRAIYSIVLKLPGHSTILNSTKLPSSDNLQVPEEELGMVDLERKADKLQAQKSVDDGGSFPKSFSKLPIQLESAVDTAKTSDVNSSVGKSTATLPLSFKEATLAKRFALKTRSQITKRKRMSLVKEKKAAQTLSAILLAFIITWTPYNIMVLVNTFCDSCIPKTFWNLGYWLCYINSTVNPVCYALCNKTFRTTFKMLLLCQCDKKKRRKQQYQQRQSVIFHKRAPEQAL
From the text: radioligand binding inhibition on M3 (muscarinic receptor M3)

[5] = molecular target: T4, M2 (muscarinic subtype 2 acetylcholine receptor); test: radioligand binding inhibition; conditions: range of […] separate tests ([…] and […])
[6] = molecular target: T4, M2 (muscarinic subtype 2 acetylcholine receptor); test: radioligand binding inhibition screen; conditions: read-out: % inhibition or stimulation^a
From the text: radioligand binding inhibition screen on M2 (muscarinic subtype 2 acetylcholine receptor)

## CN(C)c1cc(CNCC(C)(C)C)c(O)c2c1C[C@H]1C[C@H]3[C@H](N(C)C)C(=O)C(C(N)=O)=C(O)[C@@]3(O)C(=O)C1=C2O [omadacycline]
M4
  pIC50: < 4.52
[1]
  IC25: 166 µg/mL (≈ 298 µM)
M1
  pIC50: 4.54
[2]
  pEC50: < 4.52
M5
  pIC50: < 4.52
[3]
  pIC50: 4.55 to 4.68
[4]
  pIC50: < 4.52
[5]
  pIC50: 5.37 to 5.38
[6]
  inhibition at 10 µM: 82%
